ChEMBL document CHEMBL1130438, “The Gif system as a tool in medicinal chemistry: The oxidation of Sch 57726 under GoAggIII conditions” (Bioorg Med Chem Lett, 1997)

Columns and labels:
[1] = target: cGMP-dependent 3',5'-cyclic phosphodiesterase (Homo sapiens, UniProt O00408); experiment: Inhibition of phosphodiesterase 2
Phosphodiesterase 4 = Phosphodiesterase 4 (Homo sapiens, UniProt P27815+Q08499+Q07343+Q08493); experiment: Inhibition of phosphodiesterase 4; format: protein assay
[2] = target: cGMP-specific 3',5'-cyclic phosphodiesterase (Bos taurus, UniProt Q28156); experiment: Inhibition of bovine lung phosphodiesterase 5
Phosphodiesterase 3B = Phosphodiesterase 3B (Bos taurus, UniProt E1BN64); experiment: Inhibition of bovine heart phosphodiesterase 3
Phosphodiesterase 1 = Phosphodiesterase 1 (Bos taurus, UniProt Q01061+P14100); experiment: Inhibition of bovine aorta phosphodiesterase 1; format: protein assay

Chain of cGMP-dependent 3',5'-cyclic phosphodiesterase (O00408 whole entry): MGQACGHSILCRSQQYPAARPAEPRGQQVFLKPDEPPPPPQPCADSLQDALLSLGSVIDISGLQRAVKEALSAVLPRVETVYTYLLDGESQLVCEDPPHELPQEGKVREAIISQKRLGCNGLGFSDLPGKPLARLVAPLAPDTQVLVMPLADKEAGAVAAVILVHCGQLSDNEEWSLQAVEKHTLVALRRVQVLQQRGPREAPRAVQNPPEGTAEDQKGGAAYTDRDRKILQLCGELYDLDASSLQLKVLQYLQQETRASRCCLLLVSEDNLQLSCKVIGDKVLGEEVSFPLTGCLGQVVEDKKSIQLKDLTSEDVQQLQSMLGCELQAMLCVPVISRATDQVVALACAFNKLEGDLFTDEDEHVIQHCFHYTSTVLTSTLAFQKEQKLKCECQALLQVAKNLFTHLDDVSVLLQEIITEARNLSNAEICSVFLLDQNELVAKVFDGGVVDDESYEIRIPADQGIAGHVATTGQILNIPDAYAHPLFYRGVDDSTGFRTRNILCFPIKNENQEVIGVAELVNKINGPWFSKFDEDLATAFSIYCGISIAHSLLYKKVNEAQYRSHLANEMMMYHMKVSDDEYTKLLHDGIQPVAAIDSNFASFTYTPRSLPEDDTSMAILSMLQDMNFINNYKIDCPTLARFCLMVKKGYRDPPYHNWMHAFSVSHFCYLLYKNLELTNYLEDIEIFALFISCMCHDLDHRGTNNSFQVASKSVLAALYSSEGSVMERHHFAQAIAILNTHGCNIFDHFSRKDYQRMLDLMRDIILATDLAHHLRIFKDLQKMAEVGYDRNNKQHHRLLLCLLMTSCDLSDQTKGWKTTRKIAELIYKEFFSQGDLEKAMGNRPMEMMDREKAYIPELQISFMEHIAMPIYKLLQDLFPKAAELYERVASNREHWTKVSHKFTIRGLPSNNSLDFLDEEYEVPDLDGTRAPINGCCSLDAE
Chain of Phosphodiesterase 3B (E1BN64 whole entry): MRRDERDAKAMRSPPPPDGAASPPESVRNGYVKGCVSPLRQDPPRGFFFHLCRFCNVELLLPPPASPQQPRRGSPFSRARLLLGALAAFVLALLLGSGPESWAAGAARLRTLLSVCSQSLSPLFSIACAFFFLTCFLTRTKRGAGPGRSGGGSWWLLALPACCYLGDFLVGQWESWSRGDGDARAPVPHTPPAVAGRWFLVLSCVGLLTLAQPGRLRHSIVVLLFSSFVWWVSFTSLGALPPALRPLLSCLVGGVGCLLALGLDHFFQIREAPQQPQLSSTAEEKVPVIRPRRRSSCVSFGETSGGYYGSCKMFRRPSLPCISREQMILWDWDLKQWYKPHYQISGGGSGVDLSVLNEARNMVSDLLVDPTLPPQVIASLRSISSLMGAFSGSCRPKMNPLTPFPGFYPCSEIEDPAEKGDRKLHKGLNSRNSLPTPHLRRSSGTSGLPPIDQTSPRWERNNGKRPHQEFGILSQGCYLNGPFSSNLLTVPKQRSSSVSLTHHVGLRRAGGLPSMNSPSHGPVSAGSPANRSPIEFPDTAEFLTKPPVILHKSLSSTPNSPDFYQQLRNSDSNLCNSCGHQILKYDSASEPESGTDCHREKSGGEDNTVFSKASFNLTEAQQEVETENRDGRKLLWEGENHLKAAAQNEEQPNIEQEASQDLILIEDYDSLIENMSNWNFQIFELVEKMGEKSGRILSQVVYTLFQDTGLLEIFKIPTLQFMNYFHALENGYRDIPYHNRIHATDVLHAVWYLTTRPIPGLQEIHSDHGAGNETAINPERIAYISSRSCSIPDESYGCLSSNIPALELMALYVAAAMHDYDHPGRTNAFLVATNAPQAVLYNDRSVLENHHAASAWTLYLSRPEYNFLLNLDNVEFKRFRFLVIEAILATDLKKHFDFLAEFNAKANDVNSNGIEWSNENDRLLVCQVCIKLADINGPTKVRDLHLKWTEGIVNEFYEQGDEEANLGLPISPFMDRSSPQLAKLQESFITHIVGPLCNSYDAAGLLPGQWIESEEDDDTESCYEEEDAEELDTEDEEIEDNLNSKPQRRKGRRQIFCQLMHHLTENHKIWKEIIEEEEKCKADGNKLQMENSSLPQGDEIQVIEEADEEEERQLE

Structure (SMILES): CN1C(=O)c2c(nc(-c3ccc(C4CCCCC4)cc3)n2Cc2ccccc2)N2CC3(CCCC3)N=C12
- IC50 [1]: 17000 nM
- IC50 (Phosphodiesterase 4): 2200 nM
- IC50 [2]: 190 nM
- IC50 (Phosphodiesterase 3B): > 100000 nM
- IC50 (Phosphodiesterase 1): 110 nM
